According to ChEMBL document CHEMBL1201862, “PubChem BioAssay data set” (2004):
The source made the active and inactive calls.

Columns and labels:
[1] = cytotoxicity toward HT-29 cells – cell-based, CellTiter-Glo luminescence, IC50, dose response (AID 1117330); type: functional
[2] = Reduced DLD-1 viability, concentration-response, CellTiter-Glo luminescence (AID 1117352); type: functional
[3] = CellTiter-Glo luminescence survival assay, SW480 colon tumor line, concentration-response curve, half-maximal inhibitory concentration (AID 1117338); type: functional
[4] = HCT116 cell viability decrease, GSK3B pretreatment – CellTiter-Glo, IC50, dose response (AID 1117339); type: functional; conditions: HCT-116
[5] = cytotoxicity toward HCT116 cells – cell-based, CellTiter-Glo luminescence, IC50, dose response (AID 1117332); type: functional; conditions: HCT-116
[6] = cytotoxicity toward Colo320 cells – cell-based, CellTiter-Glo luminescence, IC50, dose response (AID 1117334); type: functional; conditions: COLO 320
[7] = SNU-C1 cell viability reduction, dose response, CellTiter-Glo luminescence (AID 1117323); type: functional, cell-based
[8] = RKO cell viability reduction, dose response, CellTiter-Glo luminescence (AID 1117322); type: functional
Ephrin type-A receptor 4 = Ephrin type-A receptor 4 (Mus musculus, UniProt Q03137); experiment: EphA4 ligand-binding antagonists – biochemical, colorimetric, mouse EphA4, primary screen (AID 689); type: functional
[9] = biological target: Voltage-dependent T-type calcium channel subunit alpha-1H (Homo sapiens, UniProt O95180); type: functional;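 note: channel activity triggered by adding a high calcium stimulation buffer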
[10] = inhibitors of non-replicating M. tuberculosis, dose response, luciferase, dry powder (AID 651619); type: functional
[11] = inhibitors of non-replicating M. tuberculosis, dose response, luciferase, dry powder (AID 651620); type: functional
14-3-3 protein gamma = 14-3-3 protein gamma (Homo sapiens, UniProt P61981); experiment: modulators of 14-3-3 gamma client binding – dose response (AID 711); type: functional
[12] = HIV-1 Vif–A3G interaction blockers – biochemical, TR-FRET, GST-Vif 1-94, biotin-A3G peptide, dose response retest, primary screen (AID 1117319); type: functional;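 note: TR-FRET signal of purified GST-Vif binding a biotinylated A3G peptide; inhibitors lower the FRET signal by blocking Vif and A3G binding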
[13] = biological target: T1, Replicative DNA helicase DnaB (Mycobacterium tuberculosis, UniProt P9WMR3); experiment: DnaB intein splicing inhibitors, dose response, biochemical, cell-free fluorescence (AID 449749); type: functional
T1 sequence (P9WMR3 whole entry): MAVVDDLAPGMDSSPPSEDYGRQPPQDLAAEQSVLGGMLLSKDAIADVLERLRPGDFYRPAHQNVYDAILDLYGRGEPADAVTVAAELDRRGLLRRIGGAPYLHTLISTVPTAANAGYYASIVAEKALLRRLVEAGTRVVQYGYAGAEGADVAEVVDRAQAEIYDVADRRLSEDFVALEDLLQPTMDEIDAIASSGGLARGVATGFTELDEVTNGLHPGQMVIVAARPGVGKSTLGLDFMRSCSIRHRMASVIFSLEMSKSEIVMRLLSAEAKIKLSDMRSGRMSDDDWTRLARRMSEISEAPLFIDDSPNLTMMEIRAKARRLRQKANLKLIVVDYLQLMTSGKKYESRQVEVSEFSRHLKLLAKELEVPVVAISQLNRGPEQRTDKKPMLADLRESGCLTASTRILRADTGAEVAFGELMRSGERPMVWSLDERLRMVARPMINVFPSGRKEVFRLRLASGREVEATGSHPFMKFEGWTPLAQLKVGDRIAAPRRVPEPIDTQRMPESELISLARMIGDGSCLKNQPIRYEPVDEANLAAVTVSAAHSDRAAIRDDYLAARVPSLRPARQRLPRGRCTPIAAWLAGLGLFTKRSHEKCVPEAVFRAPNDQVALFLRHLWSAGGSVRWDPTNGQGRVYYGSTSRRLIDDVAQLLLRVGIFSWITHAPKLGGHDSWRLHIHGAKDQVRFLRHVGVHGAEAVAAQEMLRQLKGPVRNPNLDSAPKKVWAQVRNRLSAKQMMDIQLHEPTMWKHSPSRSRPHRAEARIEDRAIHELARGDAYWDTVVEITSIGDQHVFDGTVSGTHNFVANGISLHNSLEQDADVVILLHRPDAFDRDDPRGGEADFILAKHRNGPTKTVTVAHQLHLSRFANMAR

[14] = biological target: DNA (cytosine-5)-methyltransferase 1 (Homo sapiens, UniProt P26358); experiment: inhibition of DNA methylation by DNMT1 – biochemical, fluorescent molecular beacon, confirmation (AID 602386); type: functional
Protein RecA = biological target: T2, Protein RecA (Mycobacterium tuberculosis, UniProt P9WHJ3); experiment: Fluorescence Cell-Free Homogeneous Dose Retest to Identify Inhibitors of RecA-Intein Splicing Activity. [Related pubchem assays (depositor defined):AID2097, AID2223, AID489010, AID492950]; type: functional
T2 sequence (P9WHJ3 whole entry): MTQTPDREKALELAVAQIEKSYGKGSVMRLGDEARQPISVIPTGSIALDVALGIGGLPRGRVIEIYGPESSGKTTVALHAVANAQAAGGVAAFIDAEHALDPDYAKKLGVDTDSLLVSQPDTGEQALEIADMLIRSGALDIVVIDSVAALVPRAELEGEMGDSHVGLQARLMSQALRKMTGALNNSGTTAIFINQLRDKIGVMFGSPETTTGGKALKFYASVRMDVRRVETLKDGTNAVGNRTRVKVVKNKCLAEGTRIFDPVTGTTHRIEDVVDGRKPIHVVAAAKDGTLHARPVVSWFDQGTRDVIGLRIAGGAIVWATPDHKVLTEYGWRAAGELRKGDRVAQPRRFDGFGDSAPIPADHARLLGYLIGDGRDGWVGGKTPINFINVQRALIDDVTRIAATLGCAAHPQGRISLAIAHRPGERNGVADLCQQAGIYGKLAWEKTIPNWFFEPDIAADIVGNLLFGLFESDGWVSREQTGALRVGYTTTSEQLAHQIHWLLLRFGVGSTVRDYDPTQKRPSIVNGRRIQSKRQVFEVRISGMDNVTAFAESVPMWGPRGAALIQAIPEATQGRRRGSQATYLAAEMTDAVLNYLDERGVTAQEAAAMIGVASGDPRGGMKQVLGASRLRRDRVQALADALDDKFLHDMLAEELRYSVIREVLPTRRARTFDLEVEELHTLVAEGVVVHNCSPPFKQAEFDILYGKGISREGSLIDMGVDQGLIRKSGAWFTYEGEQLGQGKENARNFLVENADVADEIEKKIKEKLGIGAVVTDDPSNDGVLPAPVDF

[15] = biological target: Histone-lysine N-methyltransferase NSD2 (Homo sapiens, UniProt O96028); type: biochemical
Caspase-6 = Caspase-6 (Homo sapiens, UniProt P55212); experiment: inhibition of CASP6 peptide cleavage – biochemical, VEID-R110 fluorescence, cherry-pick, dose response (AID 720632)
[16] = biological target: NAD-dependent protein deacylase sirtuin-5, mitochondrial (Homo sapiens, UniProt Q9NXA8); experiment: blockers of sirtuin-5 peptide desuccinylation – biochemical, fluorescence imaging, cherry-pick, set 6, dose response (AID 720597)
NAD-dependent protein deacylase sirtuin-5, mitochondrial, sequence (Q9NXA8 whole entry): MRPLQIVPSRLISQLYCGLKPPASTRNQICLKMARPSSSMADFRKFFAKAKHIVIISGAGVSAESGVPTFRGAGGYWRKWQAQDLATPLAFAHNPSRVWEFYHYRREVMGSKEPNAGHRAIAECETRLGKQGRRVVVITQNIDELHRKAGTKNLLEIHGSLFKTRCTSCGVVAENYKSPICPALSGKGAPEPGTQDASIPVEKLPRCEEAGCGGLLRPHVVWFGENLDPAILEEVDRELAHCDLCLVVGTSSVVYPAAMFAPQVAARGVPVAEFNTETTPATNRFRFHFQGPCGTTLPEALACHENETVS

Histone-lysine N-methyltransferase NSD2, sequence (O96028 whole entry): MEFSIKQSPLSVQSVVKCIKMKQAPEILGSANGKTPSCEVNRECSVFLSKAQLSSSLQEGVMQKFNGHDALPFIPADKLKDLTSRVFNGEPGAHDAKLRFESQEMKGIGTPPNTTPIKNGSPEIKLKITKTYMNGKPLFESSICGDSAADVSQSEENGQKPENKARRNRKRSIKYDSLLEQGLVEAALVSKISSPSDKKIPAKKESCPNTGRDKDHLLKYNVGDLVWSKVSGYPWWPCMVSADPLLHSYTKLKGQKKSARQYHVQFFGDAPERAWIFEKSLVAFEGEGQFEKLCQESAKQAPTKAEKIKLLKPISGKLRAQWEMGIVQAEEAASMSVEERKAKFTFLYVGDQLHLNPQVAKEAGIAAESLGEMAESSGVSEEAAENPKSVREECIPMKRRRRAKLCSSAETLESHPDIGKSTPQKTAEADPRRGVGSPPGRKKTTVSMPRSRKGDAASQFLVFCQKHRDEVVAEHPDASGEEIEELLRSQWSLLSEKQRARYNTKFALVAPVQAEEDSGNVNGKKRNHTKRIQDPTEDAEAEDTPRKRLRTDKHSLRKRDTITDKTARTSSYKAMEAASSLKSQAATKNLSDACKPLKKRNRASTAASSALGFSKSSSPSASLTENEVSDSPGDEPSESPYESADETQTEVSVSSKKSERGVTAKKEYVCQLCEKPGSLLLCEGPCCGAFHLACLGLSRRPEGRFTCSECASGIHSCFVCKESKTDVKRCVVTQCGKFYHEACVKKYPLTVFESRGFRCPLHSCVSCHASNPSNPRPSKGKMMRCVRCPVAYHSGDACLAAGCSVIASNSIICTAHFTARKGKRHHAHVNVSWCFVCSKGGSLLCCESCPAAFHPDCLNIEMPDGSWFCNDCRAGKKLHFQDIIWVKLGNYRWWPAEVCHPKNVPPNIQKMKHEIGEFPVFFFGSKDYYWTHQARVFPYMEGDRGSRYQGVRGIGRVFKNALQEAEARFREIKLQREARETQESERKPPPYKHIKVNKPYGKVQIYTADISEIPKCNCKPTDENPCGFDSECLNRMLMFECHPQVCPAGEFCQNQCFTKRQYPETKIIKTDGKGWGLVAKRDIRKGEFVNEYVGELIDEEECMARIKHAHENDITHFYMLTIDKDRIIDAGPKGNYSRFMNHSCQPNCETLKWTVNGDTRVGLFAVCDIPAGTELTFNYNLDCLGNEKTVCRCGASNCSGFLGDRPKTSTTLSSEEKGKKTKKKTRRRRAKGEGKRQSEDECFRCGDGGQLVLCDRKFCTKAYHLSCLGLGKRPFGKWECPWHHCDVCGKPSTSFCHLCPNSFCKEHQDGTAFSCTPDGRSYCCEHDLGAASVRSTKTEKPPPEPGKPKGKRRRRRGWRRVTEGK
DNA (cytosine-5)-methyltransferase 1, sequence (P26358 whole entry): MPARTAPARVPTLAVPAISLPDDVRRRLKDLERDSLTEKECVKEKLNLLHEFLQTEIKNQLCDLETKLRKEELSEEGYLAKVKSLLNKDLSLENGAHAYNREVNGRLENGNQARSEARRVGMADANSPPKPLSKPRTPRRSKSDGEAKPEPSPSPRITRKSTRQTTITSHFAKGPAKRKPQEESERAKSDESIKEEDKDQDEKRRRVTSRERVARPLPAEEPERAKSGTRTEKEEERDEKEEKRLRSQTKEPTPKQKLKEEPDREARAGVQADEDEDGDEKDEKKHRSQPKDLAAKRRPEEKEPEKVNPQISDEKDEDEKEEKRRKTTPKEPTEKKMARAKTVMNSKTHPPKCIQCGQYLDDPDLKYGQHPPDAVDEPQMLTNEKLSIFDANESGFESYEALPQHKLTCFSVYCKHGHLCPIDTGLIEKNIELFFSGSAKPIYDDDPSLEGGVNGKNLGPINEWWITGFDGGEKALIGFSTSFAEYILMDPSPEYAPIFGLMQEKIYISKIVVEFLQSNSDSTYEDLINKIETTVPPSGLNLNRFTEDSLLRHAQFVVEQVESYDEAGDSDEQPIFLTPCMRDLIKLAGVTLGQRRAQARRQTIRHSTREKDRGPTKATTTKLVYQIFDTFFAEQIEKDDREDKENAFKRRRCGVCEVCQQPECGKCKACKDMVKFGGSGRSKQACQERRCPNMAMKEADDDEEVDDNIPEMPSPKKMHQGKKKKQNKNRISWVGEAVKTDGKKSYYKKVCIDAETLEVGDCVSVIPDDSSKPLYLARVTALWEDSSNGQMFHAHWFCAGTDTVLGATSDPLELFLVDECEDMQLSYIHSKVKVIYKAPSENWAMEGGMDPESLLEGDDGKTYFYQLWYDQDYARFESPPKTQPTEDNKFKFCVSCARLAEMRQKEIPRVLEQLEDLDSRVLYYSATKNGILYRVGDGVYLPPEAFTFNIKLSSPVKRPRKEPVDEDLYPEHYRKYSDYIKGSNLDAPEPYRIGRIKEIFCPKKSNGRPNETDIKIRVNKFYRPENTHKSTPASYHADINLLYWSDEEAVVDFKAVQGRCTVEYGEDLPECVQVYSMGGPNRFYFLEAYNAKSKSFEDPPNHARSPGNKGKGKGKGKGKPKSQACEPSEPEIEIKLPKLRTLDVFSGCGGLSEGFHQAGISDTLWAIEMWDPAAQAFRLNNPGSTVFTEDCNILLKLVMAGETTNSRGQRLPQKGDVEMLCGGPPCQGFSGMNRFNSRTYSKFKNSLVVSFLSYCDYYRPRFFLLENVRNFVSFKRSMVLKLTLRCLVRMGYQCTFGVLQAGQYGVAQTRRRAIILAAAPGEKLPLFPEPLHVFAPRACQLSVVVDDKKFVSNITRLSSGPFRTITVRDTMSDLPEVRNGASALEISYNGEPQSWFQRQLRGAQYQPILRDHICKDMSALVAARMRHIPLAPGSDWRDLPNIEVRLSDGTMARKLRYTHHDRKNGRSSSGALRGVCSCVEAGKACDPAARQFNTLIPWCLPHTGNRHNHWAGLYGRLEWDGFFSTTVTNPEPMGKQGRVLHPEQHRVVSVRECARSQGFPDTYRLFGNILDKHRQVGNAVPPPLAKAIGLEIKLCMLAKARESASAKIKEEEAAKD
Caspase-6, sequence (P55212 24-179 limits assumed): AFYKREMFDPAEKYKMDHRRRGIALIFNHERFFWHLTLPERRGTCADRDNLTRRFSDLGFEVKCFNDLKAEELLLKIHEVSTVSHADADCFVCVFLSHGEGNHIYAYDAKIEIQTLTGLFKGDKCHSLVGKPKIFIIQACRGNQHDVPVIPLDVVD
Caspase-6, sequence (P55212 194-293 limits assumed): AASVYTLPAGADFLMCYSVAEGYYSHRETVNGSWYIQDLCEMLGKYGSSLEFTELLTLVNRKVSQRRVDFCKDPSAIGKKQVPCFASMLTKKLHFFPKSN
14-3-3 protein gamma, sequence (P61981 whole entry): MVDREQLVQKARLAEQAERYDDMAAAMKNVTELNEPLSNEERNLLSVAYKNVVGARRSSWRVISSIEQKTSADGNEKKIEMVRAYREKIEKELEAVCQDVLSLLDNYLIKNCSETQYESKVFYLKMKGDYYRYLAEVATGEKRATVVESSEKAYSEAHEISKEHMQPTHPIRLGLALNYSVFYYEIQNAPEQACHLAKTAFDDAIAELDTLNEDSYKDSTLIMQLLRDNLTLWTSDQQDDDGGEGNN
Ephrin type-A receptor 4, sequence (Q03137 whole entry): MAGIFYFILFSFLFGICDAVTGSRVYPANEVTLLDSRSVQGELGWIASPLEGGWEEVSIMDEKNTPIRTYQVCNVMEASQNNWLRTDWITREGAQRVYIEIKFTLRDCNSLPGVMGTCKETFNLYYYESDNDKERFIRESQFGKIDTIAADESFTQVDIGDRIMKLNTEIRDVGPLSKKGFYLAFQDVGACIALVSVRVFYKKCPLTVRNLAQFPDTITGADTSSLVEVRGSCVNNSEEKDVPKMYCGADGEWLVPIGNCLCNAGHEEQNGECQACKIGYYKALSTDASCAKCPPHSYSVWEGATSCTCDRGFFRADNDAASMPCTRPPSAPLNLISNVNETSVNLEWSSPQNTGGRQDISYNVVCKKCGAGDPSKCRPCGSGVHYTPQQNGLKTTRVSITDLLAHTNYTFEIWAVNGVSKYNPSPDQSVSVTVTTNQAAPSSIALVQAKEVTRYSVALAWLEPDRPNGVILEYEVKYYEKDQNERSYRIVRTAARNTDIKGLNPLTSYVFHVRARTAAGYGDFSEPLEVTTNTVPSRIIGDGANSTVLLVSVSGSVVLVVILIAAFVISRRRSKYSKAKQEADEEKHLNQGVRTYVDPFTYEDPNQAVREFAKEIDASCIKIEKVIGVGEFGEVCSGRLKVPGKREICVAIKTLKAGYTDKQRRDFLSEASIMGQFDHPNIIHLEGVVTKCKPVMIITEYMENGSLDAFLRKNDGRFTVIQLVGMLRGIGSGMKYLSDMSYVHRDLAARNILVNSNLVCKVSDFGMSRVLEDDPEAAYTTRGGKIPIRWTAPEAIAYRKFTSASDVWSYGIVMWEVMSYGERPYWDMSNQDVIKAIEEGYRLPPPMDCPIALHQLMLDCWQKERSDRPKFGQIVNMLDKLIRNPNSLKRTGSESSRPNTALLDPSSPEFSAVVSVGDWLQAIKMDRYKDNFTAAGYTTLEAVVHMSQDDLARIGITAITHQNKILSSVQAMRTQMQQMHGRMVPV

For CCOC(=O)C=C(C)C=CC[C@@H](C)CCCC(C)C, the IC50 [1] was > 20 µM (inactive), the IC50 [2] was > 20 µM (inactive) and the IC50 [3] was > 20 µM (inactive). For the same compound, the IC50 [4] was > 20 µM (inactive), the IC50 [5] was > 20 µM (inactive) and the IC50 [6] was > 20 µM (inactive). The IC50 [7] was > 20 µM (inactive) and the IC50 [8] was > 20 µM (inactive).

In the case of COc1ccc(C(c2nnnn2Cc2cccs2)N2CCN(c3ccccc3F)CC2)cc1 (stereo not drawn), the IC50 (Ephrin type-A receptor 4) is reported as > 100 µM (not active) and the EC50 [9] is reported as 18 µM (active).

With Clc1ccc(-c2nnc(SCc3cn(Cc4ccccc4)nn3)o2)cc1 the IC90 [10] was 1 µM (active), the IC90 ([10]; Mycobacterium tuberculosis) was 2 µM (active) and the IC90 [11] was 1 µM (active). For the same compound, the IC90 ([11]; Mycobacterium tuberculosis) was 2 µM (active).

For CN(C)S(=O)(=O)CC12CCC(CC1=O)C2(C)C (stereo not drawn), the IC50 (14-3-3 protein gamma) was > 50 µM (not active).

For CCN(CC)C(=O)c1ccc(CS(=O)(=O)c2ccc(OC)cc2)o1, the IC50 [12] was > 100 µM (active).

With NS(=O)(=O)c1ccc(N=Nc2ccc(O)nc2O)cc1 the AC50 [13] was 53.2 µM (active), the IC50 [14] was 7.65 µM (active) and the EC50 (Protein RecA) was 4.4 µM (active). For the same compound, the AC50 [15] was > 20 µM (inactive) and the AC50 (Caspase-6) was 2.07 µM (active).

For CC(C)CC#Cc1ccc([C@@H]2[C@@H](CO)N3C(=O)CN(C(=O)c4ccccn4)C[C@H]23)cc1, the AC50 [16] was 19.7 µM (active).

In the case of C[C@H](CO)N1C[C@H](C)[C@@H](CN(C)C)Oc2ccc(NC(=O)Nc3ccc(F)cc3)cc2CC1=O, the AC50 [16] is reported as > 30 µM (inactive).
